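Briefly, cells in 96-well plates were exposed to five compound concentrations for 48 h, and endpoints were estimated by linear interpolation. The concentration for 50% growth inhibition is given as GI50. Definition used: TGI = concentration required for complete inhibition of growth.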
Experiments:
Test in all cases: inhibition of tumour cell growth, NCI panel, 48 h
PC-3 prostate = test system: PC-3 prostate
UACC-257 melanoma = test system: UACC-257 melanoma
786-0 renal = test system: 786-0 renal
SK-MEL-5 melanoma = test system: SK-MEL-5 melanoma
U251 CNS = test system: U251 CNS
A498 renal = test system: A498 renal
HT29 colon = test system: HT29 colon
UO-31 renal = test system: UO-31 renal
LOX IMVI melanoma = test system: LOX IMVI melanoma
KM12 colon = test system: KM12 colon

SMILES: Cc1c2ccn(O)cc2c(C)c2c1nc1ccccc12
- TGI (PC-3 prostate): 30.2 µM
- TGI (UACC-257 melanoma): > 100 µM
- TGI (786-0 renal): 35.4 µM
- TGI (SK-MEL-5 melanoma): > 100 µM
- TGI (U251 CNS): 16.7 µM
- TGI (A498 renal): 55.6 µM
- TGI (HT29 colon): > 100 µM
- TGI (UO-31 renal): 27.5 µM
- TGI (LOX IMVI melanoma): 17.1 µM
- TGI (KM12 colon): > 100 µM

SMILES: CSc1c(C2=C(c3cn(C)c4ccccc34)C(=O)NC2=O)c2ccccc2n1C
- GI50 (PC-3 prostate): 0.795 µM
- TGI (PC-3 prostate): > 25 µM
- GI50 (UACC-257 melanoma): 1.41 µM
- TGI (UACC-257 melanoma): > 25 µM
- GI50 (786-0 renal): 1.19 µM
- TGI (786-0 renal): > 25 µM
- GI50 (SK-MEL-5 melanoma): 0.758 µM
- TGI (SK-MEL-5 melanoma): 6.88 µM
- GI50 (U251 CNS): 1.23 µM
- TGI (U251 CNS): > 25 µM
- GI50 (A498 renal): 0.376 µM
- TGI (A498 renal): 2.11 µM
- GI50 (HT29 colon): 0.814 µM
- TGI (HT29 colon): > 25 µM
- GI50 (UO-31 renal): 0.703 µM
- TGI (UO-31 renal): > 19.4 µM
- GI50 (LOX IMVI melanoma): 1.54 µM
- TGI (LOX IMVI melanoma): > 25 µM
- GI50 (KM12 colon): 0.843 µM
- TGI (KM12 colon): > 25 µM

SMILES: COc1cc2c(c(OC)c1OC)-c1ccc(O)cc1[C@@H](NC(C)=O)CC2
- GI50 (PC-3 prostate): 0.0456 µM
- TGI (PC-3 prostate): > 100 µM
- GI50 (UACC-257 melanoma): > 68.3 µM
- TGI (UACC-257 melanoma): > 100 µM
- GI50 (786-0 renal): 0.0779 µM
- TGI (786-0 renal): > 100 µM
- GI50 (SK-MEL-5 melanoma): 0.0412 µM
- TGI (SK-MEL-5 melanoma): 0.195 µM
- GI50 (U251 CNS): 0.0465 µM
- TGI (U251 CNS): > 100 µM
- GI50 (A498 renal): 0.0269 µM
- TGI (A498 renal): 0.0956 µM
- GI50 (HT29 colon): 0.0339 µM
- TGI (HT29 colon): 0.141 µM
- GI50 (UO-31 renal): 0.279 µM
- TGI (UO-31 renal): > 51.2 µM
- GI50 (LOX IMVI melanoma): 0.0803 µM
- TGI (LOX IMVI melanoma): > 100 µM
- GI50 (KM12 colon): 0.0358 µM
- TGI (KM12 colon): 0.224 µM

SMILES: CCCCCCCCCCCCCCCCCc1nccn1CCOCCO
- GI50 (PC-3 prostate): 4.9 µg/mL
- TGI (PC-3 prostate): 10.7 µg/mL
- GI50 (UACC-257 melanoma): 5.49 µg/mL
- TGI (UACC-257 melanoma): 11 µg/mL
- GI50 (786-0 renal): 6.19 µg/mL
- TGI (786-0 renal): 11.7 µg/mL
- GI50 (SK-MEL-5 melanoma): 4.87 µg/mL
- TGI (SK-MEL-5 melanoma): 9.61 µg/mL
- GI50 (U251 CNS): 4.52 µg/mL
- TGI (U251 CNS): 9.62 µg/mL
- GI50 (A498 renal): 4.82 µg/mL
- TGI (A498 renal): 11 µg/mL
- GI50 (HT29 colon): 4.59 µg/mL
- TGI (HT29 colon): 10.1 µg/mL
- GI50 (UO-31 renal): 5.68 µg/mL
- TGI (UO-31 renal): 11.6 µg/mL
- GI50 (LOX IMVI melanoma): 5.11 µg/mL
- TGI (LOX IMVI melanoma): 10.4 µg/mL
- GI50 (KM12 colon): 6.06 µg/mL
- TGI (KM12 colon): 11.4 µg/mL

SMILES: O=C(O)[C@H](Cc1c[nH]c2ccccc12)N1C(=O)c2ccccc2C1=O
- TGI (PC-3 prostate): > 100 µM
- TGI (UACC-257 melanoma): > 100 µM
- TGI (786-0 renal): > 100 µM
- TGI (SK-MEL-5 melanoma): > 100 µM
- TGI (U251 CNS): > 100 µM
- GI50 (A498 renal): 87.3 µM
- TGI (A498 renal): > 100 µM
- TGI (HT29 colon): > 100 µM
- TGI (UO-31 renal): > 100 µM
- TGI (LOX IMVI melanoma): > 100 µM
- TGI (KM12 colon): > 100 µM

SMILES: CCCCOC(=O)c1ccc(N)cc1
- GI50 (PC-3 prostate): 9.9 µM
- TGI (PC-3 prostate): > 100 µM
- GI50 (UACC-257 melanoma): 52.2 µM
- TGI (UACC-257 melanoma): > 100 µM
- GI50 (786-0 renal): 32.4 µM
- TGI (786-0 renal): > 100 µM
- GI50 (SK-MEL-5 melanoma): 27.8 µM
- TGI (SK-MEL-5 melanoma): > 100 µM
- GI50 (U251 CNS): > 100 µM
- TGI (U251 CNS): > 100 µM
- GI50 (A498 renal): 33.6 µM
- TGI (A498 renal): > 100 µM
- GI50 (HT29 colon): > 100 µM
- TGI (HT29 colon): > 100 µM
- GI50 (UO-31 renal): 8.74 µM
- TGI (UO-31 renal): > 100 µM
- GI50 (LOX IMVI melanoma): 30.8 µM
- TGI (LOX IMVI melanoma): > 100 µM
- GI50 (KM12 colon): 29.8 µM
- TGI (KM12 colon): > 100 µM

SMILES: CCCCCCCCCCCCCCCC1=NCCN1
- GI50 (PC-3 prostate): 2.03 µM
- TGI (PC-3 prostate): 4.24 µM
- GI50 (UACC-257 melanoma): 3.25 µM
- TGI (UACC-257 melanoma): 9.55 µM
- GI50 (786-0 renal): 1.84 µM
- TGI (786-0 renal): 3.32 µM
- GI50 (SK-MEL-5 melanoma): 1.81 µM
- TGI (SK-MEL-5 melanoma): 3.24 µM
- GI50 (U251 CNS): 1.87 µM
- TGI (U251 CNS): 3.52 µM
- GI50 (A498 renal): 2.14 µM
- TGI (A498 renal): 6.14 µM
- GI50 (HT29 colon): 1.87 µM
- TGI (HT29 colon): 4.45 µM
- GI50 (UO-31 renal): 1.65 µM
- TGI (UO-31 renal): 3.47 µM
- GI50 (KM12 colon): 1.83 µM
- TGI (KM12 colon): 3.45 µM

— PubChem BioAssay (NCI)
